Assay results from patent US10508120B2, “TYK2 inhibitors and uses thereof” (Nimbus Lakshmi, Inc., priority 2017, dated 2019).

Key:
[1] = target: human TYK2 (JH2domain-pseudokinase) (Homo sapiens (Human), UniProt P29597); test: TYK2 JH2 Domain Binding Assay (KINOMEscan)
How it was run: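 The construct was human TYK2 G556–D888 fused to the NFkB DNA-binding domain and expressed in HEK293 cells; unpurified extract was incubated with compound and liganded beads for 1 hour at room temperature.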

[2] = target: Tyk2 kinase domain (DH1) (Homo sapiens (Human), UniProt P29597); test: Tyk2 Radioactive Kinase Assay; assay type: biochemical; details: compound at 10 μM, ATP 10 μM; for inhibition at 10 µM: read-out: Tyk2 JH1% Inhibition @ 10 μM
How it was run: (§1)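 Values are single-concentration percent inhibition figures. They were obtained with 10 μM compound in a radioactivity-based kinase assay run separately on each enzyme.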

[3] = target: JAK2 kinase domain (JH1) (Homo sapiens (Human), UniProt O60674); test: JAK2 Radioactive Kinase Assay; assay type: biochemical; details: compound at 10 μM, ATP 10 μM; for inhibition at 10 µM: read-out: JAK2 JH1% Inhibition @ 10 μM
How it was run: as §1

Sequence of Tyk2 kinase domain (DH1) (P29597 897-1176): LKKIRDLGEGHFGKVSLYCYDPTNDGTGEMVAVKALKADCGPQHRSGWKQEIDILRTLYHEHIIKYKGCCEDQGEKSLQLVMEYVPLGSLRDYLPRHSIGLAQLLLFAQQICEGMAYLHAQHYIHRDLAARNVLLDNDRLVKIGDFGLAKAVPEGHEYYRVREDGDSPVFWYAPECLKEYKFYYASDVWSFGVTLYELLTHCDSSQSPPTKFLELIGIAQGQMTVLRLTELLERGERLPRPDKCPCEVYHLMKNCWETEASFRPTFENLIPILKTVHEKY
Sequence of human TYK2 (JH2domain-pseudokinase) (P29597 556-888): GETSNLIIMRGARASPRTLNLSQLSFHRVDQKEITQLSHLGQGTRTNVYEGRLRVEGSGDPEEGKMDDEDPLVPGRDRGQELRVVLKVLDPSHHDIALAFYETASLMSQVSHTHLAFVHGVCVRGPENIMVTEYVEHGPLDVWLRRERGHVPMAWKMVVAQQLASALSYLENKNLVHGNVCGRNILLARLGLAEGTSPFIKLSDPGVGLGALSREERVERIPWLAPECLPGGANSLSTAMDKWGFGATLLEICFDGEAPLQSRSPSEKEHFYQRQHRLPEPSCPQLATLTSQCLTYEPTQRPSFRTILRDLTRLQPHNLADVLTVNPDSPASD
Sequence of JAK2 kinase domain (JH1) (O60674 849-1124): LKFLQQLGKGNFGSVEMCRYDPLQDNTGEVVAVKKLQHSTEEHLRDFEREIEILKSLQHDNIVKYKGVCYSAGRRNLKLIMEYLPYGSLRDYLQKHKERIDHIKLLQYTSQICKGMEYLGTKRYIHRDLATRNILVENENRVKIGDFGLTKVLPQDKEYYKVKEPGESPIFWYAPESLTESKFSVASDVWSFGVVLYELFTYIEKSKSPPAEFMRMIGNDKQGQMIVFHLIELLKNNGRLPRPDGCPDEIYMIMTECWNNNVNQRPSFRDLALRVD

Row | SMILES | Kd [1] [nM] | inhibition at 10 µM [2] [%] | inhibition at 10 µM [3] [%] | Tyk2 JH1% Inhibition @ 10 μM [2] | JAK2 JH1% Inhibition @ 10 μM [3]
1 | CNc1cc(Nc2cccc([C@@H]3CCCOC3)n2)nc2c(C(=O)N[C@@H]3CC[C@@H]3O)cnn12 [I-605] | < 0.2 | < 50 | < 50 | – | –
2 | CNc1cc(Nc2cccn([C@H]3CCN(C)C[C@@H]3F)c2=O)nc2c(C(=O)NC3CC3)cnn12 [I-608] | < 0.2 | < 50 | < 50 | – | –
3 | CNc1cc(Nc2cccn(C3CCN(C)CC3)c2=O)nc2c(C(=O)N[C@@H]3CC[C@@H]3O)cnn12 [I-609] | < 0.2 | < 50 | < 50 | – | –
4 | CNc1cc(Nc2cccc([C@@H]3CCCCO3)n2)nc2c(C(=O)N[C@@H]3CC[C@@H]3O)cnn12 [I-610] | < 0.2 | < 50 | < 50 | – | –
5 | CNc1cc(Nc2cccc([C@H]3CCCCO3)n2)nc2c(C(=O)N[C@@H]3CC[C@@H]3O)cnn12 [I-611] | < 0.2 | < 50 | < 50 | – | –
6 | CNc1cc(Nc2cccn([C@H]3CC[C@H](OC)CC3)c2=O)nc2c(C(=O)NCC(C)CO)cnn12 (stereo partly drawn) [I-613] | < 0.2 | < 50 | < 50 | – | –
7 | CNc1cc(Nc2cccnc2OC)nc2c(C(=O)N[C@@H]3COC[C@@H]3O)cnn12 [I-614] | 1 to 10 | < 50 | < 50 | – | –
8 | CNc1cc(Nc2cccnc2OC)nc2c(C(=O)N[C@H]3COC[C@H]3O)cnn12 [I-615] | < 0.2 | < 50 | < 50 | – | –
9 | CNc1cc(-c2cn(CCN3CCN(C)CC3)c3ncccc23)nc2c(C(=O)NC3CC3)cnn12 [I-616] | < 0.2 | < 50 | < 50 | – | –
10 | CNc1cc(-c2cn(CCN3CCN(C)CC3)c3ncccc23)nc2c(C(=O)N[C@H]3C[C@H]3F)cnn12 [I-617] | < 0.2 | < 50 | < 50 | – | –
11 | CNc1cc(Nc2cccc(N3CC4(CCO4)C3)n2)nc2c(C(=O)NC3CC3)cnn12 [I-618] | < 0.2 | < 50 | < 50 | – | –
12 | CNc1cc(Nc2cccc(N3CC4(CCO4)C3)n2)nc2c(C(=O)N[C@H]3C[C@H]3F)cnn12 [I-619] | < 0.2 | < 50 | < 50 | – | –
13 | CNc1cc(Nc2cccc(N3CC(O)C3)n2)nc2c(C(=O)NC3CC3)cnn12 [I-620] | < 0.2 | < 50 | < 50 | – | –
14 | CNc1cc(Nc2cccn([C@H]3CCC[C@@H](OC)C3)c2=O)nc2c(C(=O)NC3CC3)cnn12 [I-622] | 0.2 to 1 | < 50 | < 50 | – | –
15 | CNc1cc(Nc2c(F)ccn(C(C)C)c2=O)nc2c(C(=O)NC3CC3)cnn12 [I-623] | 1 to 10 | < 50 | < 50 | – | –
16 | CNc1cc(Nc2c(F)ccn(-c3nccs3)c2=O)nc2c(C(=O)N[C@H]3C[C@H]3F)cnn12 [I-624] | 0.2 to 1 | 70 to 90 | < 50 | – | –
17 | CNc1cc(Nc2cc(F)cn(C3CCN(C)CC3)c2=O)nc2c(C(=O)NC3CC3)cnn12 [I-625] | < 0.2 | < 50 | < 50 | – | –
18 | CNc1cc(Nc2cc(F)cn(C3CCN(C)CC3)c2=O)nc2c(C(=O)N[C@H]3C[C@H]3F)cnn12 [I-626] | < 0.2 | < 50 | < 50 | – | –
19 | CNc1cc(Nc2cccn([C@H]3CCN(C)C[C@H]3F)c2=O)nc2c(C(=O)NC3CC3)cnn12 [I-627] | < 0.2 | < 50 | < 50 | – | –
20 | CNc1cc(Nc2cccn(C3CCN(CCC#N)CC3)c2=O)nc2c(C(=O)N[C@H]3C[C@H]3F)cnn12 [I-628, -((1-(1-(2-cyanoethyl)piperidin-4-yl)-2-oxo-1,2-dihydropyridin-3-yl)amino)-N-((1R,2S)-2-fluorocyclopropyl)-7-(methylamino)pyrazolo[1,5-a]pyrimidine-3-carboxamide] | < 0.2 | < 50 | < 50 | – | –
21 | CNc1cc(-c2cn(C(C)C)c3ncccc23)nc2c(C(=O)NC3CC4(COC4)C3)cnn12 [I-629, 5-(1-isopropyl-1H-pyrrolo[2,3-b]pyridin-3-yl)-7-(methylamino)-N-(2-oxaspiro[3.3]heptan-6-yl)pyrazolo[1,5-a]pyrimidine-3-carboxamide] | 0.2 to 1 | < 50 | < 50 | – | –
22 | CNc1cc(Nc2ccc3c(n2)CCO3)nc2c(C(=O)NC3CC3)cnn12 [I-631] | 0.2 to 1 | < 50 | < 50 | – | –
23 | CNc1cc(Nc2ccc3c(n2)CCO3)nc2c(C(=O)N[C@H]3C[C@H]3F)cnn12 [I-632] | < 0.2 | < 50 | < 50 | – | –
24 | CNc1cc(Nc2cccn(-c3cnn(C)c3)c2=O)nc2c(C(=O)NCC(C)CO)cnn12 (stereo not drawn) [I-633] | < 0.2 | < 50 | < 50 | – | –
25 | CNc1cc(Nc2cccc([C@H]3CCCOC3)n2)nc2c(C(=O)N[C@@H]3COC[C@@H]3O)cnn12 [I-634] | < 0.2 | < 50 | < 50 | – | –
26 | CNc1cc(-c2cn(C(C)C)c3ncccc23)nc2c(C(=O)N[C@@H]3CC[C@@H]3O)cnn12 [I-638] | 0.2 to 1 | – | – | A (percent inhibition at 10 μM lower than 50) | A (percent inhibition at 10 μM lower than 50)
27 | CNc1cc(Nc2cccc([C@H]3CCCOC3)n2)nc2c(C(=O)N[C@@H]3CC[C@@H]3O)cnn12 [I-641] | 0.2 to 1 | – | – | A (percent inhibition at 10 μM lower than 50) | A (percent inhibition at 10 μM lower than 50)
28 | CNc1cc(Nc2cccc([C@H]3CCCOC3)n2)nc2c(C(=O)N[C@H]3CC[C@H]3O)cnn12 [I-642] | < 0.2 | < 50 | < 50 | – | –
29 | CNc1cc(Nc2cccc([C@@H]3CCCOC3)n2)nc2c(C(=O)N[C@@H]3CC[C@@H]3O)cnn12 [I-643] | 0.2 to 1 | – | – | A (percent inhibition at 10 μM lower than 50) | A (percent inhibition at 10 μM lower than 50)

Continued, in another order:

Row | Kd [1] [nM] | inhibition at 10 µM [2] [%] | inhibition at 10 µM [3] [%] | SMILES | Tyk2 JH1% Inhibition @ 10 μM [2] | JAK2 JH1% Inhibition @ 10 μM [3]
30 | < 0.2 | < 50 | < 50 | CNc1cc(Nc2cccc([C@@H]3CCCOC3)n2)nc2c(C(=O)N[C@H]3CC[C@H]3O)cnn12 [I-644] | – | –
31 | 1 to 10 | < 50 | < 50 | CNc1cc(Nc2cccc([C@@H]3CCCCO3)n2)nc2c(C(=O)N[C@H]3CC[C@H]3O)cnn12 [I-645] | – | –
32 | < 0.2 | < 50 | < 50 | CNc1cc(Nc2cccc([C@H]3CCCCO3)n2)nc2c(C(=O)N[C@H]3CC[C@H]3O)cnn12 [I-647] | – | –
33 | 0.2 to 1 | – | – | CNc1cc(Nc2cccc([C@H]3CCCCO3)n2)nc2c(C(=O)N[C@@H]3CC[C@@H]3O)cnn12 [I-648] | A (percent inhibition at 10 μM lower than 50) | A (percent inhibition at 10 μM lower than 50)
34 | < 0.2 | < 50 | < 50 | CNc1cc(Nc2cccn(C3CCOCC3)c2=O)nc2c(C(=O)NCC(C)CO)cnn12 (stereo not drawn) [I-649] | – | –
35 | 1 to 10 | < 50 | < 50 | CNc1cc(Nc2cccn([C@@H]3CCCOC3)c2=O)nc2c(C(=O)N[C@H]3[C@@H]4COC[C@@H]43)cnn12 [I-650] | – | –
36 | > 10 | < 50 | < 50 | CNc1cc(Nc2cccn([C@H]3CCCOC3)c2=O)nc2c(C(=O)N[C@H]3[C@@H]4COC[C@@H]43)cnn12 [I-651] | – | –
37 | < 0.2 | < 50 | < 50 | CNc1cc(Nc2cccn(C3CCN(CCC#N)CC3)c2=O)nc2c(C(=O)NC3CC3)cnn12 [I-652, 5-((1-(1-(2-cyanoethyl)piperidin-4-yl)-2-oo-1,2-dihydropyridin-3-yl)amino)-N-cyclopropyl-7-(methylamino)pyrazolo[1,5-a]pyrimidine-3-carboxamide] | – | –
38 | < 0.2 | < 50 | < 50 | CNc1cc(Nc2cccn(-c3nc(C)co3)c2=O)nc2c(C(=O)N[C@@H]3CC[C@@H]3O)cnn12 [I-654] | – | –
39 | 0.2 to 1 | < 50 | < 50 | CNc1cc(Nc2cccc(N3CCC4(CCCO4)CC3)n2)nc2c(C(=O)NC3CC3)cnn12 [I-655] | – | –
40 | < 0.2 | < 50 | < 50 | CNc1cc(Nc2cccc(N3CCC4(CCCO4)CC3)n2)nc2c(C(=O)N[C@H]3C[C@H]3F)cnn12 [I-656] | – | –
41 | < 0.2 | < 50 | < 50 | CNc1cc(Nc2cccc(N3CCC4(CCCO4)CC3)n2)nc2c(C(=O)N[C@@H]3CC[C@@H]3O)cnn12 [I-657] | – | –
42 | < 0.2 | < 50 | < 50 | CNc1cc(Nc2cccn3cnnc23)nc2c(C(=O)NC3CC3)cnn12 [I-659] | – | –
43 | < 0.2 | < 50 | < 50 | CNc1cc(Nc2cccn3cnnc23)nc2c(C(=O)N[C@H]3C[C@H]3F)cnn12 [I-660] | – | –
44 | < 0.2 | < 50 | < 50 | CNc1cc(Nc2cccn3cnnc23)nc2c(C(=O)N[C@@H]3CC[C@@H]3O)cnn12 [I-662] | – | –
45 | < 0.2 | < 50 | < 50 | CNc1cc(Nc2cccn(-c3nc(C)co3)c2=O)nc2c(C(=O)NCC(C)CO)cnn12 (stereo not drawn) [I-663] | – | –
